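Interpolation was linear, between the two tested concentrations surrounding the appropriate level; five concentrations were tested over 48 hours in 96-well plates. TGI denotes the concentration required for complete inhibition of growth.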
How the values were obtained:
Assay in all cases: NCI anticancer screen, dose series, 48 h
SK-MEL-5 melanoma = system: SK-MEL-5 melanoma
A549 NSCLC = system: A549 NSCLC
MALME-3M melanoma = system: MALME-3M melanoma
OVCAR-3 ovarian = system: OVCAR-3 ovarian
COLO 205 colon = system: COLO 205 colon
ACHN renal = system: ACHN renal
MOLT-4 leukemia = system: MOLT-4 leukemia
HS 578T breast = system: HS 578T breast
SK-OV-3 ovarian = system: SK-OV-3 ovarian
T-47D breast = system: T-47D breast
SF-268 CNS = system: SF-268 CNS
SR leukemia = system: SR leukemia
A498 renal = system: A498 renal
K-562 leukemia = system: K-562 leukemia
CCRF-CEM leukemia = system: CCRF-CEM leukemia
NCI-H23 lung = system: NCI-H23 lung
UACC-62 melanoma = system: UACC-62 melanoma
SW-620 colon = system: SW-620 colon
786-0 renal = system: 786-0 renal
RXF 393 renal = system: RXF 393 renal
SNB-75 CNS = system: SNB-75 CNS
SF-539 CNS = system: SF-539 CNS
HCT-116 colon = system: HCT-116 colon
IGROV1 ovarian = system: IGROV1 ovarian
MDA-MB-435 = system: MDA-MB-435
EKVX NSCLC = system: EKVX NSCLC
NCI-H226 lung = system: NCI-H226 lung
M14 melanoma = system: M14 melanoma
NCI/ADR-RES ovarian = system: NCI/ADR-RES ovarian
MCF7 breast = system: MCF7 breast
SN12C renal = system: SN12C renal
OVCAR-8 ovarian = system: OVCAR-8 ovarian
PC-3 prostate = system: PC-3 prostate
HCT-15 colon = system: HCT-15 colon
HCC-2998 colon = system: HCC-2998 colon
NCI-H460 lung = system: NCI-H460 lung
UACC-257 melanoma = system: UACC-257 melanoma
HL-60(TB) leukemia = system: HL-60(TB) leukemia
HOP-62 NSCLC = system: HOP-62 NSCLC
OVCAR-5 ovarian = system: OVCAR-5 ovarian
KM12 colon = system: KM12 colon
RPMI-8226 leukemia = system: RPMI-8226 leukemia
DU-145 prostate = system: DU-145 prostate
TK-10 renal = system: TK-10 renal
SK-MEL-28 melanoma = system: SK-MEL-28 melanoma
UO-31 renal = system: UO-31 renal
BT-549 breast = system: BT-549 breast
HOP-92 NSCLC = system: HOP-92 NSCLC
U251 CNS = system: U251 CNS
SF-295 CNS = system: SF-295 CNS
SNB-19 CNS = system: SNB-19 CNS
MDA-N = system: MDA-N
MDA-MB-231 breast = system: MDA-MB-231 breast
HT29 colon = system: HT29 colon
LOX IMVI melanoma = system: LOX IMVI melanoma
OVCAR-4 ovarian = system: OVCAR-4 ovarian
CAKI-1 renal = system: CAKI-1 renal
SK-MEL-2 melanoma = system: SK-MEL-2 melanoma
NCI-H522 lung = system: NCI-H522 lung

Compound: COc1cc(OC)cc(C(=O)CC(=O)c2cc(OC)cc(OC)c2)c1
- TGI (SK-MEL-5 melanoma): > 100 µM
- TGI (A549 NSCLC): > 100 µM
- TGI (MALME-3M melanoma): > 100 µM
- TGI (OVCAR-3 ovarian): > 100 µM
- TGI (COLO 205 colon): > 100 µM
- TGI (ACHN renal): > 100 µM
- TGI (MOLT-4 leukemia): > 100 µM
- TGI (HS 578T breast): > 100 µM
- TGI (SK-OV-3 ovarian): > 100 µM
- TGI (T-47D breast): > 100 µM
- TGI (SF-268 CNS): > 100 µM
- TGI (SR leukemia): > 100 µM
- TGI (A498 renal): > 100 µM
- TGI (K-562 leukemia): > 100 µM
- TGI (CCRF-CEM leukemia): > 100 µM
- TGI (NCI-H23 lung): > 100 µM
- TGI (UACC-62 melanoma): > 100 µM
- TGI (SW-620 colon): > 100 µM
- TGI (786-0 renal): > 100 µM
- TGI (RXF 393 renal): > 100 µM
- TGI (SNB-75 CNS): > 100 µM
- TGI (SF-539 CNS): > 100 µM
- TGI (HCT-116 colon): > 100 µM
- TGI (IGROV1 ovarian): > 100 µM
- TGI (MDA-MB-435): > 100 µM
- TGI (EKVX NSCLC): > 100 µM
- TGI (NCI-H226 lung): > 100 µM
- TGI (M14 melanoma): > 100 µM
- TGI (NCI/ADR-RES ovarian): > 100 µM
- TGI (MCF7 breast): > 100 µM
- TGI (SN12C renal): > 100 µM
- TGI (OVCAR-8 ovarian): > 100 µM
- TGI (PC-3 prostate): > 100 µM
- TGI (HCT-15 colon): > 100 µM
- TGI (HCC-2998 colon): > 100 µM
- TGI (NCI-H460 lung): > 100 µM
- TGI (UACC-257 melanoma): > 100 µM
- TGI (HL-60(TB) leukemia): > 100 µM
- TGI (HOP-62 NSCLC): > 100 µM
- TGI (OVCAR-5 ovarian): > 100 µM
- TGI (KM12 colon): > 100 µM
- TGI (RPMI-8226 leukemia): > 100 µM
- TGI (DU-145 prostate): > 100 µM
- TGI (TK-10 renal): > 100 µM
- TGI (SK-MEL-28 melanoma): > 100 µM
- TGI (UO-31 renal): > 100 µM
- TGI (BT-549 breast): > 100 µM
- TGI (HOP-92 NSCLC): > 100 µM
- TGI (U251 CNS): > 100 µM
- TGI (SF-295 CNS): > 100 µM
- TGI (SNB-19 CNS): > 100 µM
- TGI (MDA-N): > 100 µM

Compound: CCCCCC#CCOC(=O)C(=[N+]=[N-])P(=O)(c1ccccc1)c1ccccc1
- TGI (SK-MEL-5 melanoma): > 10 µM
- TGI (A549 NSCLC): > 10 µM
- TGI (MALME-3M melanoma): > 10 µM
- TGI (OVCAR-3 ovarian): > 10 µM
- TGI (ACHN renal): > 10 µM
- TGI (MOLT-4 leukemia): > 10 µM
- TGI (HS 578T breast): > 10 µM
- TGI (SK-OV-3 ovarian): > 10 µM
- TGI (T-47D breast): > 10 µM
- TGI (SF-268 CNS): > 10 µM
- TGI (SR leukemia): > 10 µM
- TGI (A498 renal): > 10 µM
- TGI (MDA-MB-231 breast): > 10 µM
- TGI (K-562 leukemia): > 10 µM
- TGI (NCI-H23 lung): > 10 µM
- TGI (UACC-62 melanoma): > 10 µM
- TGI (SW-620 colon): > 10 µM
- TGI (786-0 renal): > 10 µM
- TGI (RXF 393 renal): > 10 µM
- TGI (SNB-75 CNS): > 10 µM
- TGI (SF-539 CNS): > 10 µM
- TGI (HCT-116 colon): > 10 µM
- TGI (IGROV1 ovarian): > 10 µM
- TGI (HT29 colon): > 10 µM
- TGI (MDA-MB-435): > 10 µM
- TGI (EKVX NSCLC): > 10 µM
- TGI (NCI-H226 lung): > 10 µM
- TGI (M14 melanoma): > 10 µM
- TGI (MCF7 breast): > 10 µM
- TGI (SN12C renal): > 10 µM
- TGI (OVCAR-8 ovarian): > 10 µM
- TGI (PC-3 prostate): > 10 µM
- TGI (HCT-15 colon): > 10 µM
- TGI (HCC-2998 colon): > 10 µM
- TGI (NCI-H460 lung): > 10 µM
- TGI (UACC-257 melanoma): > 10 µM
- TGI (HL-60(TB) leukemia): > 10 µM
- TGI (HOP-62 NSCLC): > 10 µM
- TGI (OVCAR-5 ovarian): > 10 µM
- TGI (KM12 colon): > 10 µM
- TGI (RPMI-8226 leukemia): > 10 µM
- TGI (DU-145 prostate): > 10 µM
- TGI (TK-10 renal): > 10 µM
- TGI (SK-MEL-28 melanoma): > 10 µM
- TGI (LOX IMVI melanoma): > 10 µM
- TGI (UO-31 renal): > 10 µM
- TGI (BT-549 breast): > 10 µM
- TGI (HOP-92 NSCLC): > 10 µM
- TGI (U251 CNS): > 10 µM
- TGI (SF-295 CNS): > 10 µM
- TGI (SNB-19 CNS): > 10 µM
- TGI (MDA-N): > 10 µM

Compound: COc1ccc2/c(=C/c3ccc(N(C)C)cc3)c3cc(-c4ccccc4)[n+](C)n3c2c1
- TGI (SK-MEL-5 melanoma): 0.292 µM
- TGI (MALME-3M melanoma): 0.579 µM
- TGI (COLO 205 colon): 0.236 µM
- TGI (ACHN renal): 2.39 µM
- TGI (MOLT-4 leukemia): 0.931 µM
- TGI (SK-OV-3 ovarian): 1.68 µM
- TGI (T-47D breast): 2.77 µM
- TGI (SF-268 CNS): 1.19 µM
- TGI (SR leukemia): 0.962 µM
- TGI (MDA-MB-231 breast): 1.66 µM
- TGI (K-562 leukemia): 1.15 µM
- TGI (CCRF-CEM leukemia): 5.37 µM
- TGI (SW-620 colon): 1.47 µM
- TGI (HCT-116 colon): 1.37 µM
- TGI (HT29 colon): 0.624 µM
- TGI (M14 melanoma): 1.16 µM
- TGI (NCI/ADR-RES ovarian): > 100 µM
- TGI (SN12C renal): 1.6 µM
- TGI (OVCAR-8 ovarian): 0.731 µM
- TGI (PC-3 prostate): 0.543 µM
- TGI (HCT-15 colon): 3.28 µM
- TGI (HCC-2998 colon): 1.08 µM
- TGI (NCI-H460 lung): 3.56 µM
- TGI (OVCAR-4 ovarian): 4.19 µM
- TGI (CAKI-1 renal): 7.77 µM
- TGI (UACC-257 melanoma): 0.888 µM
- TGI (HL-60(TB) leukemia): 0.106 µM
- TGI (HOP-62 NSCLC): 2.63 µM
- TGI (OVCAR-5 ovarian): 1.44 µM
- TGI (KM12 colon): 1.99 µM
- TGI (RPMI-8226 leukemia): 0.912 µM
- TGI (DU-145 prostate): 1.77 µM
- TGI (TK-10 renal): 1.43 µM
- TGI (UO-31 renal): 5.2 µM
- TGI (U251 CNS): 1.27 µM
- TGI (SF-295 CNS): 2.51 µM
- TGI (SNB-19 CNS): 2.2 µM
- TGI (MDA-N): 0.475 µM

Compound: CCCNc1ncnc2c1ncn2C
- TGI (SK-MEL-5 melanoma): > 100 µM
- TGI (A549 NSCLC): > 100 µM
- TGI (MALME-3M melanoma): > 100 µM
- TGI (OVCAR-3 ovarian): > 100 µM
- TGI (COLO 205 colon): > 100 µM
- TGI (ACHN renal): > 100 µM
- TGI (MOLT-4 leukemia): > 100 µM
- TGI (SK-OV-3 ovarian): > 100 µM
- TGI (T-47D breast): > 100 µM
- TGI (A498 renal): 95.1 µM
- TGI (MDA-MB-231 breast): > 100 µM
- TGI (K-562 leukemia): > 100 µM
- TGI (CCRF-CEM leukemia): > 100 µM
- TGI (NCI-H23 lung): > 100 µM
- TGI (UACC-62 melanoma): > 100 µM
- TGI (SW-620 colon): > 100 µM
- TGI (786-0 renal): > 100 µM
- TGI (RXF 393 renal): > 100 µM
- TGI (SNB-75 CNS): > 100 µM
- TGI (SF-539 CNS): > 100 µM
- TGI (HCT-116 colon): > 100 µM
- TGI (IGROV1 ovarian): > 100 µM
- TGI (MDA-MB-435): > 100 µM
- TGI (EKVX NSCLC): > 100 µM
- TGI (SK-MEL-2 melanoma): > 100 µM
- TGI (NCI-H226 lung): > 100 µM
- TGI (M14 melanoma): > 100 µM
- TGI (NCI/ADR-RES ovarian): > 100 µM
- TGI (MCF7 breast): > 100 µM
- TGI (SN12C renal): 98.2 µM
- TGI (OVCAR-8 ovarian): > 100 µM
- TGI (NCI-H522 lung): > 100 µM
- TGI (PC-3 prostate): > 100 µM
- TGI (HCT-15 colon): > 100 µM
- TGI (HCC-2998 colon): > 100 µM
- TGI (OVCAR-4 ovarian): > 100 µM
- TGI (CAKI-1 renal): > 100 µM
- TGI (UACC-257 melanoma): > 100 µM
- TGI (HL-60(TB) leukemia): 96.3 µM
- TGI (HOP-62 NSCLC): > 100 µM
- TGI (KM12 colon): > 100 µM
- TGI (RPMI-8226 leukemia): > 100 µM
- TGI (DU-145 prostate): > 100 µM
- TGI (TK-10 renal): > 100 µM
- TGI (SK-MEL-28 melanoma): > 100 µM
- TGI (LOX IMVI melanoma): > 100 µM
- TGI (UO-31 renal): > 100 µM
- TGI (HOP-92 NSCLC): > 100 µM
- TGI (U251 CNS): > 100 µM
- TGI (SF-295 CNS): > 100 µM
- TGI (SNB-19 CNS): > 100 µM
- TGI (MDA-N): > 100 µM
